For one assay, the target named is T1, FAK (Homo sapiens, UniProt Q05397).
T1 construct: homozygous knock-in of a HiBiT tag (Promega Corporation, Madison, WI) to the C-terminus of the FAK gene in its natural genomic locus; endogenous in cells; host or cells: JHH-4-FAK-HiBiT clone d01 (CRISPR-Cas9 knock-in at the endogenous locus)
Description: FAK-HiBiT Degradation Assay. Type of assay: cell-based. Particulars: for DC50: JHH-4-FAK-HiBiT clone d01 cells, two hours incubation, 10-point dose response, 3-fold dilution starting at 1 μM, Nano-Glo HiBiT luminescence, read-out: FAK HiBiT EC50; for FAK HiBiT Ymin: lower limit of the four parameter fit (value A), Ymax derived using DMSO control, JHH-4-FAK-HiBiT cells, two hours. The procedure, abridged:
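Degradation read out by HiBiT lytic luminescence after 2 h compound exposure (top concentration 1 μM, 3-fold, 10 points) in JHH-4 clone d01 bearing endogenous FAK-HiBiT knock-in. Four-parameter logistic fit gave EC50 and Ymin; DMSO wells defined Ymax.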
In general terms: With HiBiT, luminescence reflects the tagged protein that the partner subunit can reach.

The next assay deals with CAL-51 cells. Description: CAL-51 Cell Proliferation Assay. It is filed as cell-based. The conditions noted are these: for EC50: Homo sapiens, 120 hours incubation, 10-point dose response, 4-fold dilutions starting at 10 μM, Cell-Titer-Glo, read-out: CAL-51 Prolif EC50; for CAL-51 Prolif Ymin: minimal percent of DMSO control observed in the concentrations tested (Ymin-obs), 120 hours. An excerpt: CAL-51 cells were obtained from Bristol Myers Squibb internal cell banks (originally sourced from DSMZ-German Collection of Microorganisms and Cell Cultures GmbH, Germany) and cultured in RPMI complete media (RPMI-1640, 10% Fetal Bovine serum, 1× Antibiotic-Antimycotic, and 1× Non-Essential Amino Acids). Compounds were dispensed into 384-well plates using an acoustic dispenser (Beckman Coulter Life Sciences, Carlsbad, CA) in duplicate with 14 compounds on each plate. For each compound, a 10-point dose response was printed at 4-fold dilutions starting at 10 μM. The DMSO concentration was kept constant for a final assay concentration of 0.1% per well assuming 50 uL final media volume. Compound plates were sealed and frozen at −20° C. until use.
For each assay batch, compound plates were thawed and allowed to reach room temperature, and cells were seeded at 350 cells per well in 50 μl complete RPMI media. After 120 hours of incubation at 37° C. and 5% CO2, cells were lysed by addition of 25 μL of Cell-Titer-Glo Reagent (Promega Corporation, Madison, WI), as per manufacturer's instructions, protected from light, shaken for 20 minutes, and total luminescence read by a CLARIOstar Plus plate reader (BMG LabTech, Cary, NC). Total luminescence signal is linearly correlated with cell number remaining in the well.
Luminescence data was processed per plate by subtracting reagent-only “blank” well luminescence from all measured values and calculating a percent of DMSO control value for each treatment well. Then, to determine the half-maximal effective concentration (EC50) values for cell growth inhibition, a four parameter logistic model was fit to the data for each DMSO-normalized compound: Sigmoidal Dose-Response Model: (FIT=(A+((B−A)/1+((C/x)^D)))) where C is the inflection point (EC50), D is the Hill slope, and A and B are the low and high limits of the fit respectively. The lower limit of the fit (value A) is referred to as Ymin-calculated. The minimal percent of DMSO control that is observed in the concentrations tested for each compound is labeled as “Ymin-obs”, and was recorded and reported in the tables. Sigmoidal fit curves were processed and evaluated using Dotmatics Atlas (Insightful Science, LLC, Boston, MA).

T1 sequence (Q05397 whole entry): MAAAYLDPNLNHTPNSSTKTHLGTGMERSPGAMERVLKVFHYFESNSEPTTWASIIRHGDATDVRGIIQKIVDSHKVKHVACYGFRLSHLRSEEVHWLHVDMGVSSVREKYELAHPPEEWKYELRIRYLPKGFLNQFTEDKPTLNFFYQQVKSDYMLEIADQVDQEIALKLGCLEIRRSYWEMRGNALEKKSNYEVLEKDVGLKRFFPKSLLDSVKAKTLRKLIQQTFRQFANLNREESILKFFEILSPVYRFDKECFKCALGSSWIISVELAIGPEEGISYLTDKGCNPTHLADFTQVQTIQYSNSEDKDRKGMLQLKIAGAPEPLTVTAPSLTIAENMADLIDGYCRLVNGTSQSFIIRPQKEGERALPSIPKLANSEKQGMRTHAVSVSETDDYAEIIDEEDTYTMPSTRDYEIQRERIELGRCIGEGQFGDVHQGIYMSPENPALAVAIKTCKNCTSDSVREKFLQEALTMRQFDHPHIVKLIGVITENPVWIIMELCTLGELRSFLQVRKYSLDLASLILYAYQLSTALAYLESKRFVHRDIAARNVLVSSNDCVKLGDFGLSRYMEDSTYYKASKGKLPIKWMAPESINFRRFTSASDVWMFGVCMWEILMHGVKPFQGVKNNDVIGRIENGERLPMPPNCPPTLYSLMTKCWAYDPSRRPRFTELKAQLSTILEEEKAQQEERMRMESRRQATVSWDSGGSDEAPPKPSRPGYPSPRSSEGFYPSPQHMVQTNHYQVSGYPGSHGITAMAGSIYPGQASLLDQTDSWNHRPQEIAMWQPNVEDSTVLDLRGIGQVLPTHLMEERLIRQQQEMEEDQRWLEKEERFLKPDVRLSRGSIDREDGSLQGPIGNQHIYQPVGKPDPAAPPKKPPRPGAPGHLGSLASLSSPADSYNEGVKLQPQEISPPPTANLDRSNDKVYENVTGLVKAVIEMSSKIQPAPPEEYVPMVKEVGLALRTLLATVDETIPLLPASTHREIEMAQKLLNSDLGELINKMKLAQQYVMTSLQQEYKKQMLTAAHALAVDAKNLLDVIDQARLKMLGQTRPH

Regarding `O=C1CC[C@H](N2Cc3cc(Cn4ncc5c(-c6ncc(C(F)(F)F)cc6Cl)cc(N6CCOCC6)nc54)ccc3C2=O)C(=O)N1` [Example 131, (3S)-3-[5-({4-[3-chloro-5-(trifluoromethyl)pyridin-2-yl]-6-(morpholin-4-yl)-1H-pyrazolo[3,4-b]pyridin-1-yl}methyl)-1-oxo-2,3-dihydro-1H-isoindol-2-yl]piperidine-2,6-dione], at FAK, the DC50 is ≥ 1000 nM and the “FAK HiBiT Ymin” value was 92.07. In the assay on CAL-51 cells, the EC50 was found to be 3.1 nM and the “CAL-51 Prolif Ymin” value turned out to be 59.06.

As for `Cc1cc(C#N)cnc1-c1cc(N2CC(F)C2)nc2c1cnn2Cc1ccc2c(c1)CN(C1CCC(=O)NC1=O)C2=O` (centres unmarked) [Example 91, 6-(1-{[2-(2,6-dioxopiperidin-3-yl)-1-oxo-2,3-dihydro-1H-isoindol-5-yl]methyl}-6-(3-fluoroazetidin-1-yl)-1H-pyrazolo[3,4-b]pyridin-4-yl)-5-methylpyridine-3-carbonitrile], at FAK, the DC50 came out at 14.1 nM and the “FAK HiBiT Ymin” value worked out at 8.03. Besides, in the assay with CAL-51 cells, the EC50 amounted to 7.78 nM and the “CAL-51 Prolif Ymin” value stood at 24.52.

`COc1cc(C2CC2)cnc1-c1cc(N2CC(F)C2)nc2c1cnn2Cc1ccc2c(c1)CN(C1CCC(=O)NC1=O)C2=O` (centres unmarked) [Example 135, 3-(5-{[4-(5-cyclopropyl-3-methoxypyridin-2-yl)-6-(3-fluoroazetidin-1-yl)-1H-pyrazolo[3,4-b]pyridin-1-yl]methyl}-1-oxo-2,3-dihydro-1H-isoindol-2-yl)piperidine-2,6-dione]: at FAK, the DC50 is ≥ 1000 nM and the “FAK HiBiT Ymin” value worked out at 87.67. Moreover, in the assay with CAL-51 cells, the half-maximal effective concentration (EC50) is ≥ 10000 nM and the “CAL-51 Prolif Ymin” value was 84.14.

Take `N#Cc1cnc(-c2cc(N3CC(F)C3)nc3c2cnn3Cc2ccc3c(c2)CN(C2CCC(=O)NC2=O)C3=O)c(Cl)c1` (centres unmarked) [Example 73, 5-chloro-6-(1-{[2-(2,6-dioxopiperidin-3-yl)-1-oxo-2,3-dihydro-1H-isoindol-5-yl]methyl}-6-(3-fluoroazetidin-1-yl)-1H-pyrazolo[3,4-b]pyridin-4-yl)pyridine-3-carbonitrile]: on FAK, the DC50 was 6.62 nM and the “FAK HiBiT Ymin” value was 11.02. For the same molecule, in the assay with CAL-51 cells, the EC50 was found to be 3.39 nM and the “CAL-51 Prolif Ymin” value was 23.58.

With `N#Cc1cnc(-c2cc(N3CC[C@H](O)C3)nc3c2cnn3Cc2ccc3c(c2)CN([C@H]2CCC(=O)NC2=O)C3=O)c(F)c1` [Example 121, 6-[1-({2-[(3S)-2,6-dioxopiperidin-3-yl]-1-oxo-2,3-dihydro-1H-isoindol-5-yl}methyl)-6-[(3S)-3-hydroxypyrrolidin-1-yl]-1H-pyrazolo[3,4-b]pyridin-4-yl]-5-fluoropyridine-3-carbonitrile], at FAK, the DC50 was 95.4 nM and the “FAK HiBiT Ymin” value is 40.50. For the same molecule, in the assay with CAL-51 cells, the EC50 worked out at 1360 nM and the “CAL-51 Prolif Ymin” value came out at 75.47.

Turning to `CN(c1cc(-c2ncc(C(F)(F)F)cc2Cl)c2cnn(Cc3ccc4c(c3)CN([C@H]3CCC(=O)NC3=O)C4=O)c2n1)[C@H]1C[C@H](O)C1` [Example 81, (3S)-3-[5-({4-[3-chloro-5-(trifluoromethyl)pyridin-2-yl]-6-{methyl[(1r,3r)-3-hydroxycyclobutyl]amino}-1H-pyrazolo[3,4-b]pyridin-1-yl}methyl)-1-oxo-2,3-dihydro-1H-isoindol-2-yl]piperidine-2,6-dione], at FAK, the DC50 turned out to be 9.57 nM and the “FAK HiBiT Ymin” value is given as 12.82. In the assay with CAL-51 cells, the EC50 turned out to be 6.37 nM and the “CAL-51 Prolif Ymin” value is 38.16.

On to `CC(C)(O)c1cnc(-c2cc(N3CC(F)C3)nc3c2cnn3Cc2ccc3c(c2)CN([C@H]2CCC(=O)NC2=O)C3=O)c(Cl)c1` [Example 119, (3S)-3-[5-({4-[3-chloro-5-(2-hydroxypropan-2-yl)pyridin-2-yl]-6-(3-fluoroazetidin-1-yl)-1H-pyrazolo[3,4-b]pyridin-1-yl}methyl)-1-oxo-2,3-dihydro-1H-isoindol-2-yl]piperidine-2,6-dione], for which, at FAK, the DC50 was 84.9 nM and the “FAK HiBiT Ymin” value was found to be 40.36. In the assay on CAL-51 cells, the EC50 stood at 27 nM and the “CAL-51 Prolif Ymin” value was 59.05.

As for `CCOc1cnc(-c2c(Cl)c(N3CC(F)C3)nc3c2cnn3Cc2ccc3c(c2)CN([C@H]2CCC(=O)NC2=O)C3=O)c(C(F)(F)F)c1` [Example 4, (3S)-3-[5-({5-chloro-4-[5-ethoxy-3-(trifluoromethyl)pyridin-2-yl]-6-(3-fluoroazetidin-1-yl)-1H-pyrazolo[3,4-b]pyridin-1-yl}methyl)-1-oxo-2,3-dihydro-1H-isoindol-2-yl]piperidine-2,6-dione], on FAK, the DC50 is 0.42 nM and the “FAK HiBiT Ymin” value is on record as 7.37. Moreover, in the assay with CAL-51 cells, the EC50 amounted to 0.52 nM and the “CAL-51 Prolif Ymin” value turned out to be 1.90.

Consider `CN(C)c1cc(-c2ncc(C(F)(F)F)cc2Cl)c2cnn(Cc3ccc4c(c3)CN(C3CCC(=O)NC3=O)C4=O)c2n1` (centres unmarked) [Example 5, 3-[5-({4-[3-chloro-5-(trifluoromethyl)pyridin-2-yl]-6-(dimethylamino)-1H-pyrazolo[3,4-b]pyridin-1-yl}methyl)-1-oxo-2,3-dihydro-1H-isoindol-2-yl]piperidine-2,6-dione], for which, on FAK, the DC50 was determined as 0.42 nM and the “FAK HiBiT Ymin” value was determined as 6.93. Besides, in the assay on CAL-51 cells, the EC50 is 0.36 nM and the “CAL-51 Prolif Ymin” value is 29.57.

Consider `O=C1CCC(N2Cc3cc(Cn4ncc5c(-c6ncc(C(F)F)cc6Cl)cc(N6CC(F)C6)nc54)ccc3C2=O)C(=O)N1` (centres unmarked) [Example 43, 3-[5-({4-[3-chloro-5-(difluoromethyl)pyridin-2-yl]-6-(3-fluoroazetidin-1-yl)-1H-pyrazolo[3,4-b]pyridin-1-yl}methyl)-1-oxo-2,3-dihydro-1H-isoindol-2-yl]piperidine-2,6-dione], for which, on FAK, the DC50 was determined as 1.59 nM and the “FAK HiBiT Ymin” value amounted to 6.11. For the same molecule, in the assay on CAL-51 cells, the EC50 was determined as 155 nM and the “CAL-51 Prolif Ymin” value amounted to 51.95.

Take `O=C1CC[C@H](N2Cc3cc(Cn4ncc5c(-c6ncc(C(F)(F)F)cc6Cl)cc(N6CC(F)C6)nc54)ccc3C2=O)C(=O)N1` [Example 6, (3S)-3-[5-({4-[3-chloro-5-(trifluoromethyl)pyridin-2-yl]-6-(3-fluoroazetidin-1-yl)-1H-pyrazolo[3,4-b]pyridin-1-yl}methyl)-1-oxo-2,3-dihydro-1H-isoindol-2-yl]piperidine-2,6-dione]: on FAK, the DC50 came out at 0.5 nM and the “FAK HiBiT Ymin” value amounted to 8.05. For the same molecule, in the assay on CAL-51 cells, the concentration for a half-maximal effect (EC50) was 0.4 nM and the “CAL-51 Prolif Ymin” value was 31.07.

For the molecule `O=C1CCC(N2Cc3cc(Cn4ccc5c(-c6ncc(F)cc6Cl)cc(N6CC(F)C6)nc54)ccc3C2=O)C(=O)N1` (centres unmarked) [Example 17, 3-(5-((4-(3-chloro-5-fluoropyridin-2-yl)-6-(3-fluoroazetidin-1-yl)-1H-pyrrolo[2,3-b]pyridin-1-yl)methyl)-1-oxoisoindolin-2-yl)piperidine-2,6-dione], on FAK, the DC50 is 3.36 nM and the “FAK HiBiT Ymin” value is 7.42. In the assay on CAL-51 cells, the EC50 stood at 3.46 nM and the “CAL-51 Prolif Ymin” value is given as 28.46.

In the case of `O=C1CC[C@@H](N2Cc3c(ccc(Cn4ncc5c(-c6ncc(F)cc6Cl)cc(N6CC(F)C6)nc54)c3F)C2=O)C(=O)N1` (single isomer, unassigned) [Example 109], on FAK, the DC50 worked out at 42.1 nM and the “FAK HiBiT Ymin” value worked out at 11.09. In addition, in the assay with CAL-51 cells, the EC50 turned out to be 10.2 nM and the “CAL-51 Prolif Ymin” value was determined as 35.33.

As for `O=C1CCC(N2Cc3cc(Cn4ncc5c(-c6ncccc6Cl)c(Cl)c(N6CC(F)C6)nc54)ccc3C2=O)C(=O)N1` (centres unmarked) [Example 38, 3-(5-{[5-chloro-4-(3-chloropyridin-2-yl)-6-(3-fluoroazetidin-1-yl)-1H-pyrazolo[3,4-b]pyridin-1-yl]methyl}-1-oxo-2,3-dihydro-1H-isoindol-2-yl)piperidine-2,6-dione], at FAK, the DC50 amounted to 1.09 nM and the “FAK HiBiT Ymin” value came to 8.19. For the same molecule, in the assay with CAL-51 cells, the EC50 was determined as 0.48 nM and the “CAL-51 Prolif Ymin” value was 21.89.

Broadly, the EC50 is the concentration that produces a half-maximal response.

Values taken from US20260078119A1, “DEGRADER COMPOUNDS AND USES THEREOF” (Bristol-Myers Squibb Company, priority 2024, published 2026).
